Experimental findings from patent US20220160716A1 (SORBONNE UNIVERSITE, priority 2019, published 2022) are described below.

T1 sequence (P49759 whole entry): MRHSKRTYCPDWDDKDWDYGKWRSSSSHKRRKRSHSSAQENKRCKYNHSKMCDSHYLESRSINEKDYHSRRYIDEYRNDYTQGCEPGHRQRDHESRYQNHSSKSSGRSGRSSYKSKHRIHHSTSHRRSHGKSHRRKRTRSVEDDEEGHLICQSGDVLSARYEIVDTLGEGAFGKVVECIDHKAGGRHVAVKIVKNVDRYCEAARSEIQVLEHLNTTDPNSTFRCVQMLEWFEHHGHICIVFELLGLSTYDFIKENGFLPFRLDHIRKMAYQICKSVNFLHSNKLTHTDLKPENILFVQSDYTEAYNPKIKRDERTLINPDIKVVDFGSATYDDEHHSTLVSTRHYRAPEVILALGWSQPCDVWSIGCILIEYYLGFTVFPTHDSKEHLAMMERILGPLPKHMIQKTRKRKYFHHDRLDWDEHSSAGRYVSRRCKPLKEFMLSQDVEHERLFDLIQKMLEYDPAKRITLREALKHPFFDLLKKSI

One test concerns the target T1, CLK1 (Homo sapiens, UniProt P49759).
T1 construct: made in house
The test can be described thus: Protein kinase catalytic activity assay, CLK1. To be noted: read-out: IC50 of protein kinases, CLK1. Format: biochemical.
For the compound `CC[C@@H](Nc1nc(NCc2cccc(F)c2)c2ncn(C3CCCC3)c2n1)C(=O)O` [MRT2-235], the IC50 is 11 µM.

Regarding `CC[C@@H](Nc1nc(NCc2ccc(Cl)c(F)c2)c2ncn(C3CCCC3)c2n1)C(=O)O` [MRT2-243], the half-maximal inhibitory concentration (IC50) is 20 µM.

Turning to `CC[C@@H](Nc1nc(NCc2cccc(Cl)c2)c2ncn(C3CCCC3)c2n1)C(=O)O` [MRT2-237], the IC50 was found to be 8.5 µM.

The target in the next test is T2, ABCB4-L556R (Homo sapiens, UniProt P21439, L556R). The test can be described thus: ABCB4-mediated phosphatidylcholine secretion, HEK cells expressing ABCB4-L556R. Particulars: 25 μM. Further details: The subcloning of wild type (WT) ABCB4, isoform A (NM_000443.3), into pcDNA3 vector has been described; expressed in transfected cells; host or cells: HEK-293 (immunoblot, PC secretion). It counts as cell-based. As for the experimental part: (§1) Cyclosporin A (CsA) was from Santa Cruz Biotechnologies (Dallas, Tex.). […] Each compound was solubilized in dimethylsulfoxide (DMSO) as 1000× concentrated stock solutions in order to treat cells with 5 μM to 100 μM final concentrations, using DMSO as control vehicle at the same dilution (0.1% DMSO for all conditions). The cells were treated 24 hours post-transfection with these drugs during 16 hours, except for the viability assays for which cells were treated during three days. After drug treatment, cells were used for immunoanalyses, cell viability assays or PC secretion assays.
T2 sequence (P21439 1-1279 isoform P21439-2 L556R): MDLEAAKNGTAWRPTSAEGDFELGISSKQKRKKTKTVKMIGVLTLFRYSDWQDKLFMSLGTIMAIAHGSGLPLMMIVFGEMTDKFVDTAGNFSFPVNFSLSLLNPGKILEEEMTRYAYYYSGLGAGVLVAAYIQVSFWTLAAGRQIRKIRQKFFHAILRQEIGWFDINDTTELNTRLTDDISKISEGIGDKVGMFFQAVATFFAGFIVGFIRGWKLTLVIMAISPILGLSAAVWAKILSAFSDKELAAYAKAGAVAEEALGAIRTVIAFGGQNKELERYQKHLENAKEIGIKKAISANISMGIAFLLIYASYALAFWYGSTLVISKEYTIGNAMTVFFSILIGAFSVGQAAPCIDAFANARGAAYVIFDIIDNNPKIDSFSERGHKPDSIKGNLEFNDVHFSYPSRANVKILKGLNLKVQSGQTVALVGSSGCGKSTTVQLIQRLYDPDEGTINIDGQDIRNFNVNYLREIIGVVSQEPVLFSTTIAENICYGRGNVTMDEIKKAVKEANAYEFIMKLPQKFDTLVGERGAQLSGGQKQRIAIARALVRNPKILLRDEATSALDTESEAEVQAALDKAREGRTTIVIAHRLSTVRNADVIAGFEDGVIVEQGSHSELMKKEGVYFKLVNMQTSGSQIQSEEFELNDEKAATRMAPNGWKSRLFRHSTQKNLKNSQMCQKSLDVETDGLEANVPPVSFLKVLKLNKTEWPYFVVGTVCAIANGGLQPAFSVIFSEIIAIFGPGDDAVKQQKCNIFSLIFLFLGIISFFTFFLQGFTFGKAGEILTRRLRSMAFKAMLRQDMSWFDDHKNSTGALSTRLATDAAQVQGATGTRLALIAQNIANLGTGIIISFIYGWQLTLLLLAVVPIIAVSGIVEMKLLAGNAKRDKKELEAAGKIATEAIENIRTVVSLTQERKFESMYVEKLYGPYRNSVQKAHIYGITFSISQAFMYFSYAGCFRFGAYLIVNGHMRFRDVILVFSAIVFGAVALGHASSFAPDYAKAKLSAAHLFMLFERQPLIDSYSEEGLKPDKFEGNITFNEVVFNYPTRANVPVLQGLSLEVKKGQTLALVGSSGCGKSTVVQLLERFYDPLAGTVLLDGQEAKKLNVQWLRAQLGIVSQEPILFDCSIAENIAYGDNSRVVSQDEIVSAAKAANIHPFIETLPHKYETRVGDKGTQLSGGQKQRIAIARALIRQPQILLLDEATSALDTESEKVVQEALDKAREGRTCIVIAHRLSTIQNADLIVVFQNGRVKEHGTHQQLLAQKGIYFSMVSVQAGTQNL
(§2) HEK cells were seeded in 0.01% poly-L-lysine (Sigma) pre-coated 6-well plates of 10 cm^2 area per well (1.3×10^6 cells per well). After transient transfection of the empty vector (control), plasmids encoding ABCB4-WT or its variants, cells were incubated during 24 hours at 37° C. in serum-free medium supplemented with 0.5 mM sodium taurocholate (Sigma) and 0.02% fatty acid-free bovine serum albumin (Sigma). Then, the secreted PC was quantified from the collected media using a fluoro-enzymatic assay previously described (12). Each condition was analysed in triplicate, after background subtraction, and results were normalized to the expression levels of ABCB4 determined by immunoblots of the corresponding cell lysates.
As to `CC[C@@H](Nc1nc(NCc2cccc(F)c2)c2ncn(C3CCCC3)c2n1)C(=O)O` [MRT2-235], the “PC secretion residual activity of ABCB4-L556R” value was “significant increase of the residual activity”.

For the compound `CC[C@@H](Nc1nc(NCc2ccc(Cl)c(F)c2)c2ncn(C3CCCC3)c2n1)C(=O)O` [MRT2-243], the “PC secretion residual activity of ABCB4-L556R” value is recorded as “significant increase of the residual activity”.

Turning to `CC[C@@H](Nc1nc(NCc2cccc(Cl)c2)c2ncn(C3CCCC3)c2n1)C(=O)O` [MRT2-237], the “PC secretion residual activity of ABCB4-L556R” value is “significant increase of the residual activity”.

In a further test the target is T3, ABCB4-I490T (Homo sapiens, UniProt P21439, I490T). The test can be described thus: Maturation of ABCB4-I490T by immunoblot in HEK cells. It counts as cell-based. Further details: The subcloning of wild type (WT) ABCB4, isoform A (NM_000443.3), into pcDNA3 vector has been described; expressed in transfected cells; host or cells: HEK-293 (immunoblot, PC secretion). To be noted: 5 to 25 μM. As to the method: (§3) Western blots and indirect immunofluorescence were performed as previously described (2, 12). […] Saturated membranes were incubated with mouse monoclonal anti-ABCB4 (clone P3II-26; Enzo Life Sciences, Villeurbanne, France) or anti-α-tubulin (clone 1E4C11; ProteinTech, Manchester, United Kingdom) antibodies and then with peroxidase conjugated anti-mouse secondary antibodies (Sigma). Signals were detected with ECL prime western blotting detection reagent (GE Healthcare, Velizy-Villacoublay, France) and quantified in the linear range of detection using ImageJ 1.50i software (U.S. National Institutes of Health, Bethesda, Md.).
T3 sequence (P21439 1-1279 isoform P21439-2 I490T): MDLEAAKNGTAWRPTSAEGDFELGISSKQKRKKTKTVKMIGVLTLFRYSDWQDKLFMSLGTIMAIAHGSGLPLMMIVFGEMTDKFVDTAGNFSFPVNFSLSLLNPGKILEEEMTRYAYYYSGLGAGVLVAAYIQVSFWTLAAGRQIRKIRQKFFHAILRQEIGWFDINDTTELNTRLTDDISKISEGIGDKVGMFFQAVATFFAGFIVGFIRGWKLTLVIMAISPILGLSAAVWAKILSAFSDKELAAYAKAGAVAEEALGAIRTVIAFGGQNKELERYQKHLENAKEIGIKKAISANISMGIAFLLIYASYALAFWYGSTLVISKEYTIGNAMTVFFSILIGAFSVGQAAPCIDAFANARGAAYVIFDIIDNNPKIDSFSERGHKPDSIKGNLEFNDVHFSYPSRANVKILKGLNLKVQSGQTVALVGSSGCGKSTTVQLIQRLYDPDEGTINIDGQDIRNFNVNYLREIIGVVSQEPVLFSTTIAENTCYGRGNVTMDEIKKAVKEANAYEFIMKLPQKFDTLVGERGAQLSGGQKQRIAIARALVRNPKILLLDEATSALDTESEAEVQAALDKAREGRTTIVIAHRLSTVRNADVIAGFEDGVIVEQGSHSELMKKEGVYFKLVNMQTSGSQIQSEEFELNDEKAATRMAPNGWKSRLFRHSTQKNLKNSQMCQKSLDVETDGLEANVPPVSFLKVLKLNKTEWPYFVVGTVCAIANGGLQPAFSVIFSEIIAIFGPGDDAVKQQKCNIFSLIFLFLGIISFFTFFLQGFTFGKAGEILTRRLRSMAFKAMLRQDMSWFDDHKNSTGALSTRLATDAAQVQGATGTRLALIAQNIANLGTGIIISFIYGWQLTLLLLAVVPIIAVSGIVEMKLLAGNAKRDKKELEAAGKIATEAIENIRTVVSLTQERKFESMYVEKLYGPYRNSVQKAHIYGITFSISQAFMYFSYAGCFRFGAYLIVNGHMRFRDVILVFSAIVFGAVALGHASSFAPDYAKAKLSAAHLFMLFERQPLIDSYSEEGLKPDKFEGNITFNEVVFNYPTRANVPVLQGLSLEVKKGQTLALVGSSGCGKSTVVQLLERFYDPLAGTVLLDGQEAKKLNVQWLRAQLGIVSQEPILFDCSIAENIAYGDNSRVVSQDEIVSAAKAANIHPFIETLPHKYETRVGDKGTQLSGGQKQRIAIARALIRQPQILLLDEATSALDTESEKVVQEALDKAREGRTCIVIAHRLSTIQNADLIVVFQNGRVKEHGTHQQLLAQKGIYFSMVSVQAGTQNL
(Immunoblotting shows a protein as a band on a membrane.)
Regarding `CC[C@@H](Nc1nc(NCc2cccc(F)c2)c2ncn(C3CCCC3)c2n1)C(=O)O` [MRT2-235], the “rescue of the maturation of ABCB4-I490T” value was “dose-dependent rescue of the maturation”.

Turning to `CC[C@@H](Nc1nc(NCc2ccc(Cl)c(F)c2)c2ncn(C3CCCC3)c2n1)C(=O)O` [MRT2-243], the “rescue of the maturation of ABCB4-I490T” value is given as “dose-dependent rescue of the maturation”.

With `CC[C@@H](Nc1nc(NCc2cccc(Cl)c2)c2ncn(C3CCCC3)c2n1)C(=O)O` [MRT2-237], the “rescue of the maturation of ABCB4-I490T” value is on record as “dose-dependent rescue of the maturation”.

The next test deals with T3, ABCB4-I490T. The test can be described thus: ABCB4-mediated phosphatidylcholine secretion, HEK cells expressing ABCB4-I490T. Further details: The subcloning of wild type (WT) ABCB4, isoform A (NM_000443.3), into pcDNA3 vector has been described; expressed in transfected cells; host or cells: HEK-293 (immunoblot, PC secretion). Particulars: 25 μM. It counts as cell-based. As for the experimental part: as §1, §2
On to `CC[C@@H](Nc1nc(NCc2cccc(F)c2)c2ncn(C3CCCC3)c2n1)C(=O)O` [MRT2-235], for which the “PC secretion residual activity of ABCB4-I490T” value is reported as “significant increase of the residual activity”.

Regarding `CC[C@@H](Nc1nc(NCc2ccc(Cl)c(F)c2)c2ncn(C3CCCC3)c2n1)C(=O)O` [MRT2-243], the “PC secretion residual activity of ABCB4-I490T” value is recorded as “significant increase of the residual activity”.

In the case of `CC[C@@H](Nc1nc(NCc2cccc(Cl)c2)c2ncn(C3CCCC3)c2n1)C(=O)O` [MRT2-237], the “PC secretion residual activity of ABCB4-I490T” value is recorded as “significant increase of the residual activity”.

For a further test, the target named is T2, ABCB4-L556R. The test can be described thus: Maturation of ABCB4-L556R by immunoblot in HEK cells. It counts as cell-based. Further details: The subcloning of wild type (WT) ABCB4, isoform A (NM_000443.3), into pcDNA3 vector has been described; expressed in transfected cells; host or cells: HEK-293 (immunoblot, PC secretion). Particulars: 5 to 25 μM. As for the experimental part: as §3
With `CC[C@@H](Nc1nc(NCc2cccc(F)c2)c2ncn(C3CCCC3)c2n1)C(=O)O` [MRT2-235], the “rescue of the maturation of ABCB4-L556R” value is recorded as “dose-dependent rescue of the maturation”.

For `CC[C@@H](Nc1nc(NCc2ccc(Cl)c(F)c2)c2ncn(C3CCCC3)c2n1)C(=O)O` [MRT2-243], the “rescue of the maturation of ABCB4-L556R” value is recorded as “dose-dependent rescue of the maturation”.

As to `CC[C@@H](Nc1nc(NCc2cccc(Cl)c2)c2ncn(C3CCCC3)c2n1)C(=O)O` [MRT2-237], the “rescue of the maturation of ABCB4-L556R” value is recorded as “dose-dependent rescue of the maturation”.

The next test concerns the target T3, ABCB4-I490T. The test can be described thus: Canalicular localisation of ABCB4-I490T by indirect immunofluorescence in HepG2 cells. It counts as cell-based. Details: The subcloning of wild type (WT) ABCB4, isoform A (NM_000443.3), into pcDNA3 vector has been described; expressed in transfected cells; host or cells: HepG2 (immunofluorescence). To be noted: 25 μM. As to the method:
For indirect immunofluorescence, HepG2 cells were grown on glass coverslips and after transfection and treatments, they were fixed and permeabilized during 1 min at −20° C. in ice-cold methanol. Then ABCB4 and ABCC2 were immunolabelled using the mouse monoclonal P3II-26 (IgG2b) and M2I-4 (IgG1) antibodies (Enzo Life Sciences), respectively. AlexaFluor® 555 and AlexaFluor® 488 conjugated isotype-specific secondary antibodies (Thermo Fisher Scientific) and Hoechst 33342 (Thermo Fisher Scientific) were used to label ABCB4, ABCC2 and nuclei, respectively. Images were acquired using an IX83 inverted fluorescence microscope from Olympus (Rungis, France), equipped with a UPLSAPO 60XS2 silicone immersion objective and a Hamamatsu ORCA Flash4.0 digital CMOS camera, and analysed using Olympus CellSens Dimension Desktop version 1.16 and Adobe Photoshop version 8.0.1. For each experiment, all images were acquired with constant settings (acquisition time and correction of signal intensities).
For `CC[C@@H](Nc1nc(NCc2cccc(F)c2)c2ncn(C3CCCC3)c2n1)C(=O)O` [MRT2-235], the “relocalisation of ABCB4-I490T at bile canaliculi” value (“relocalisation of ABCB4-I490T” for short) is “partially relocalised at bile canaliculi”.

Regarding `CC[C@@H](Nc1nc(NCc2ccc(Cl)c(F)c2)c2ncn(C3CCCC3)c2n1)C(=O)O` [MRT2-243], the “relocalisation of ABCB4-I490T” value is reported as “partially relocalised at bile canaliculi”.

With `CC[C@@H](Nc1nc(NCc2cccc(Cl)c2)c2ncn(C3CCCC3)c2n1)C(=O)O` [MRT2-237], the “relocalisation of ABCB4-I490T” value is given as “partially relocalised at bile canaliculi”.

The target in another test is GSK3 (Homo sapiens, UniProt P49841). The test can be described thus: Protein kinase catalytic activity assay, GSK3. It counts as biochemical. To be noted: read-out: IC50 of protein kinases, GSK3.
Chain of GSK3 (P49841 whole entry): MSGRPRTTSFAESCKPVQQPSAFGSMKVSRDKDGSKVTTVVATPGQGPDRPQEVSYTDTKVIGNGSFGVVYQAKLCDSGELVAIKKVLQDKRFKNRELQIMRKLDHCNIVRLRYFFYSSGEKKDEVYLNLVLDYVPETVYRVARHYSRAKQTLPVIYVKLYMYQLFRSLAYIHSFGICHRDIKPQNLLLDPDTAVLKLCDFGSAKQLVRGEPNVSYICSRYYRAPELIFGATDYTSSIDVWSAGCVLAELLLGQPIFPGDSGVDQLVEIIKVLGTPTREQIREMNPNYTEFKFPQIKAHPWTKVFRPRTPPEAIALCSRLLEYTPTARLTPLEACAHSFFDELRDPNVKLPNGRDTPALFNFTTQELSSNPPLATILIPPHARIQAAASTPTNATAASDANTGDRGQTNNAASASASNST
For `CC[C@@H](Nc1nc(NCc2cccc(F)c2)c2ncn(C3CCCC3)c2n1)C(=O)O` [MRT2-235], the IC50 is over 10 µM.

As for `CC[C@@H](Nc1nc(NCc2ccc(Cl)c(F)c2)c2ncn(C3CCCC3)c2n1)C(=O)O` [MRT2-243], the IC50 was over 10 µM.

In the case of `CC[C@@H](Nc1nc(NCc2cccc(Cl)c2)c2ncn(C3CCCC3)c2n1)C(=O)O` [MRT2-237], the IC50 was over 10 µM.

For the next test, the target named is T4, DYRK1A (Homo sapiens, UniProt Q13627).
T4 construct: made in house
The test can be described thus: Protein kinase catalytic activity assay, DYRK1A. Format: biochemical. Particulars: read-out: IC50 of protein kinases, DYRK1A.
On to `CC[C@@H](Nc1nc(NCc2cccc(F)c2)c2ncn(C3CCCC3)c2n1)C(=O)O` [MRT2-235], for which the half-maximal inhibitory concentration (IC50) was found to be 21 µM.

With `CC[C@@H](Nc1nc(NCc2ccc(Cl)c(F)c2)c2ncn(C3CCCC3)c2n1)C(=O)O` [MRT2-243], the IC50 came out at 12 µM.

`CC[C@@H](Nc1nc(NCc2cccc(Cl)c2)c2ncn(C3CCCC3)c2n1)C(=O)O` [MRT2-237]: the 50% inhibitory concentration (IC50) amounted to 13 µM.

By IC50 is commonly meant the concentration that inhibits the measured activity by half.
